Format in all cases: functional
For one assay, the system named is Staphylococcus aureus. Nature of the assay: Antibacterial activity against Staphylococcus aureus ATCC 29213 assessed as diameter of inhibition zone at 1 mg/ml after 24 hrs by agar well diffusion method. The conditions noted are these: ATCC 29213, 24 h, read-out: DIZ. (Agar diffusion results depend on both activity and mobility in agar.)
The next assay deals with Pseudomonas aeruginosa. Nature of the assay: Antibacterial activity against Pseudomonas aeruginosa ATCC 27953 assessed as diameter of inhibition zone at 1 mg/ml after 24 hrs by agar well diffusion method. To be noted: ATCC 27953, 24 h, read-out: DIZ.
The test system of a further assay is Priestia megaterium. Nature of the assay: Antibacterial activity against Bacillus megaterium ATCC 9885 assessed as diameter of inhibition zone at 1 mg/ml after 24 hrs by agar well diffusion method. To be noted: ATCC 9885, 24 h, read-out: DIZ.
The test system of another assay is Micrococcus luteus. Nature of the assay: Antibacterial activity against Sarcina lutea assessed as diameter of inhibition zone at 1 mg/ml after 24 hrs by agar well diffusion method. The conditions noted are these: read-out: DIZ.
Another assay has as its system Saccharomyces cerevisiae. Put plainly: Antifungal activity against Saccharomyces cerevisiae assessed as diameter of inhibition zone at 1 mg/ml after 24 hrs by agar well diffusion method. The conditions noted are these: read-out: DIZ.
The subject of another assay is Candida albicans. Nature of the assay: Antifungal activity against Candida albicans NRRLY-477 assessed as diameter of inhibition zone at 1 mg/ml after 24 hrs by agar well diffusion method. The conditions noted are these: NRRLY-477, 24 h, read-out: DIZ.
The next assay deals with Bacillus subtilis. Put plainly: Antibacterial activity against Bacillus subtilis ATCC 6633 assessed as diameter of inhibition zone at 1 mg/ml after 24 hrs by agar well diffusion method. The conditions noted are these: ATCC 6633, 24 h, read-out: DIZ.
The subject of a further assay is Klebsiella pneumoniae. Put plainly: Antibacterial activity against Klebsiella pneumoniae ATCC 13883 assessed as diameter of inhibition zone at 1 mg/ml after 24 hrs by agar well diffusion method. The conditions noted are these: ATCC 13883, 24 h, read-out: DIZ.
The subject of the next assay is Escherichia coli. Nature of the assay: Antibacterial activity against Escherichia coli ATCC 25922 assessed as diameter of inhibition zone at 1 mg/ml after 24 hrs by agar well diffusion method. The conditions noted are these: ATCC 25922, 24 h, read-out: DIZ.
Another assay relates to Proteus vulgaris. Put plainly: Antibacterial activity against Proteus vulgaris assessed as diameter of inhibition zone at 1 mg/ml after 24 hrs by agar well diffusion method. To be noted: read-out: DIZ.

From ChEMBL document CHEMBL2385069, “Thiourea derivatives incorporating a hippuric acid moiety: synthesis and evaluation of antibacterial and antifungal activities” (2013) come the findings set out here.

On to `O=C(O)CNC(=O)c1ccc(NC(=S)Nc2ccc(F)cc2)cc1`, for which the zone of inhibition at 1000 µg/mL in the assay on Staphylococcus aureus turned out to be 20 mm; with Pseudomonas aeruginosa it was 22 mm; in the assay with Priestia megaterium, 15 mm; in the assay with Micrococcus luteus it was 20 mm; in the assay on Saccharomyces cerevisiae, 13 mm; in the assay with Candida albicans it was 9 mm. In addition, the zone of inhibition at 1000 µg/mL is 0 mm with Bacillus subtilis, 20 mm in the assay on Klebsiella pneumoniae, 22 mm in the assay on Escherichia coli and 20 mm with Proteus vulgaris.

In the case of `O=C(O)CNC(=O)c1ccc(NC(=S)Nc2c3ccccc3nc3ccccc23)cc1`, the zone of inhibition at 1000 µg/mL was determined as 20 mm in the assay on Staphylococcus aureus; 15 mm in the assay with Pseudomonas aeruginosa; 18 mm in the assay on Priestia megaterium; 0 mm with Micrococcus luteus; 0 mm with Saccharomyces cerevisiae; 11 mm with Candida albicans. Further, the zone of inhibition at 1000 µg/mL with Bacillus subtilis was 12 mm; in the assay on Klebsiella pneumoniae, 23 mm; with Escherichia coli, 15 mm; in the assay with Proteus vulgaris it was 20 mm.

For the compound `O=C(O)CNC(=O)c1ccc(NC(=S)Nc2ccccc2C(=O)Nc2cccc(C(F)(F)F)c2)cc1`, the zone of inhibition at 1000 µg/mL with Staphylococcus aureus stood at 0 mm; with Pseudomonas aeruginosa, 0 mm; in the assay with Priestia megaterium, 14 mm; in the assay on Micrococcus luteus, 0 mm; with Saccharomyces cerevisiae, 15 mm; in the assay with Candida albicans, 0 mm. Also, the zone of inhibition at 1000 µg/mL turned out to be 16 mm with Bacillus subtilis, 0 mm in the assay with Klebsiella pneumoniae, 0 mm in the assay with Escherichia coli and 10 mm with Proteus vulgaris.

On to `CCOc1ccc(NC(=O)c2ccccc2NC(=S)Nc2ccc(C(=O)NCC(=O)O)cc2)cc1`, for which the zone of inhibition at 1000 µg/mL turned out to be 20 mm in the assay with Staphylococcus aureus; 0 mm in the assay on Pseudomonas aeruginosa; 0 mm with Priestia megaterium; 0 mm in the assay on Micrococcus luteus; 18 mm in the assay on Saccharomyces cerevisiae; 9 mm in the assay with Candida albicans. Moreover, the zone of inhibition at 1000 µg/mL in the assay with Bacillus subtilis is 0 mm; in the assay on Klebsiella pneumoniae, 20 mm; in the assay on Escherichia coli it was 0 mm; with Proteus vulgaris, 15 mm.

On to `NS(=O)(=O)c1ccc(NC(=S)Nc2ccc(C(=O)NCC(=O)O)cc2)cc1`, for which the zone of inhibition at 1000 µg/mL with Staphylococcus aureus was determined as 14 mm; in the assay on Pseudomonas aeruginosa, 19 mm; with Priestia megaterium, 20 mm; in the assay on Micrococcus luteus, 20 mm; with Saccharomyces cerevisiae, 17 mm; in the assay on Candida albicans it was 0 mm. Besides, the zone of inhibition at 1000 µg/mL with Bacillus subtilis came out at 18 mm; in the assay on Klebsiella pneumoniae it was 22 mm; in the assay on Escherichia coli it was 18 mm; in the assay on Proteus vulgaris it was 20 mm.

For the compound `CC(=O)NS(=O)(=O)c1ccc(NC(=S)Nc2ccc(C(=O)NCC(=O)O)cc2)cc1`, the zone of inhibition at 1000 µg/mL in the assay on Staphylococcus aureus is 15 mm; in the assay with Pseudomonas aeruginosa it was 12 mm; with Priestia megaterium, 20 mm; with Micrococcus luteus, 0 mm; in the assay on Saccharomyces cerevisiae it was 0 mm; with Candida albicans, 0 mm. Further, the zone of inhibition at 1000 µg/mL in the assay on Bacillus subtilis turned out to be 18 mm; in the assay on Klebsiella pneumoniae, 0 mm; in the assay with Escherichia coli, 0 mm; in the assay on Proteus vulgaris, 0 mm.

In the case of `N=C(N)NS(=O)(=O)c1ccc(NC(=S)Nc2ccc(C(=O)NCC(=O)O)cc2)cc1`, the zone of inhibition at 1000 µg/mL stood at 0 mm with Staphylococcus aureus; 0 mm in the assay on Pseudomonas aeruginosa; 20 mm in the assay with Priestia megaterium; 0 mm with Micrococcus luteus; 15 mm with Saccharomyces cerevisiae; 0 mm in the assay on Candida albicans. Moreover, the zone of inhibition at 1000 µg/mL in the assay with Bacillus subtilis came out at 16 mm; with Klebsiella pneumoniae it was 0 mm; in the assay with Escherichia coli it was 0 mm; in the assay with Proteus vulgaris, 0 mm.

With `O=C(O)CNC(=O)c1ccc(NC(=S)Nc2ccc(S(=O)(=O)Nc3nccs3)cc2)cc1`, the zone of inhibition at 1000 µg/mL worked out at 0 mm in the assay with Staphylococcus aureus; 30 mm in the assay on Pseudomonas aeruginosa; 14 mm with Priestia megaterium; 0 mm in the assay on Micrococcus luteus; 0 mm in the assay on Saccharomyces cerevisiae; 0 mm with Candida albicans. In addition, the zone of inhibition at 1000 µg/mL came to 15 mm in the assay with Bacillus subtilis, 0 mm in the assay on Klebsiella pneumoniae, 0 mm in the assay on Escherichia coli and 0 mm in the assay with Proteus vulgaris.

For `O=C(O)CNC(=O)c1ccc(NC(=S)Nc2ccc(S(=O)(=O)Nc3ccccn3)cc2)cc1`, the zone of inhibition at 1000 µg/mL with Staphylococcus aureus was determined as 23 mm; with Pseudomonas aeruginosa it was 21 mm; in the assay on Priestia megaterium, 0 mm; in the assay on Micrococcus luteus, 0 mm; with Saccharomyces cerevisiae, 20 mm; in the assay on Candida albicans, 11 mm. Also, the zone of inhibition at 1000 µg/mL in the assay on Bacillus subtilis came to 12 mm; in the assay with Klebsiella pneumoniae it was 20 mm; with Escherichia coli, 21 mm; with Proteus vulgaris it was 0 mm.

`Cc1c(NC(=S)Nc2ccc(C(=O)NCC(=O)O)cc2)c(=O)n(-c2ccccc2)n1C`: the zone of inhibition at 1000 µg/mL is 18 mm in the assay with Staphylococcus aureus; 22 mm in the assay with Pseudomonas aeruginosa; 18 mm in the assay on Priestia megaterium; 24 mm with Micrococcus luteus; 17 mm in the assay on Saccharomyces cerevisiae; 0 mm in the assay with Candida albicans. Further, the zone of inhibition at 1000 µg/mL is 15 mm with Bacillus subtilis, 19 mm with Klebsiella pneumoniae, 14 mm in the assay with Escherichia coli and 19 mm with Proteus vulgaris.

On to `O=C(O)CNC(=O)c1ccc(NC(=S)NNC(=O)c2ccccc2)cc1`, for which the zone of inhibition at 1000 µg/mL in the assay on Staphylococcus aureus stood at 22 mm; in the assay on Pseudomonas aeruginosa, 15 mm; in the assay on Priestia megaterium, 10 mm; in the assay with Micrococcus luteus, 20 mm; with Saccharomyces cerevisiae, 13 mm; with Candida albicans it was 9 mm. For the same compound, the zone of inhibition at 1000 µg/mL was 12 mm in the assay on Bacillus subtilis, 20 mm in the assay with Klebsiella pneumoniae, 15 mm with Escherichia coli and 15 mm in the assay with Proteus vulgaris.

Take `O=C(O)CNC(=O)c1ccc(NC(=S)NNC(=O)c2ccncc2)cc1`: the zone of inhibition at 1000 µg/mL with Staphylococcus aureus was 0 mm; in the assay with Pseudomonas aeruginosa, 12 mm; in the assay with Priestia megaterium, 23 mm; with Micrococcus luteus, 24 mm; in the assay on Saccharomyces cerevisiae, 0 mm; in the assay on Candida albicans, 12 mm. Besides, the zone of inhibition at 1000 µg/mL in the assay on Bacillus subtilis, with Klebsiella pneumoniae, in the assay with Escherichia coli and in the assay with Proteus vulgaris was 0 mm throughout.
